# “Also recorded” adds a separate entry of the source.
# How the values were obtained:
# Nrf2/ARE pathway = conditions: literature statement; cited from earlier work
# [1] = system: neural damage / oxidative stress; conditions: literature statement; cited from earlier work
# [2] = system: human iPSC-derived microglia (hiMG); assay: IL-1β release (NLRP3 inflammasome activation) from hiMG exposed to oligomeric Aβ and αSyn with their antibodies, ELISA; format: cell-based; conditions: oligomeric Aβ (~500 nM oligomers) + oligomeric αSyn (~100 nM) with anti-αSyn & anti-Aβ antibodies; carnosic acid 0.1-10 μM; n=3 per group
# Procedure: (§1) Proinflammatory microglial activation. Following a protocol adapted from D. Trudler et al. (2021), human induced pluripotent stem cell (hiPSC)-derived microglia (hiMG) were plated at a concentration of 1×10^6 cells/mL. 16 h before the experiment the cell medium was changed to IMDM (no supplements added). Carnosic acid (CA, purity >99%) was added 16 hours before the experiment, at a concentration of 2 μM. Recombinant αSyn oligomers (100 nM) and oligomeric Aβ (10 μM) were incubated with 2.5 μg/mL of their respective antibodies for 1 h prior to adding to hiMG for additional 6 hours. Media was collected and cytokine levels, IL-1β or tumor necrosis factor (TNF), were measured by ELISA per the manufacturer's instructions.
# (§2) Carnosic Acid Reduces Neuroinflammation Induced by Antibody-Misfolded Protein Complex. NLRP3 inflammasome activation was assessed by measuring the release of the proinflammatory cytokine interleukin-1β (IL-1β) from hiMG exposed to (A) oligomeric Aβ (500 nM oligomers) and low concentrations of oligomeric αSyn (100 nM), (B) Aβ and αSyn with their cognate human antibodies (anti-Aβ and anti-αSyn, respectively), and (C) same as (B) with carnosic acid.
# [3] = system: HSF-1 and Nrf2 transcription pathways; conditions: literature statement (Satoh et al. 2015); cited from earlier work
# [4] = system: human iPSC-derived microglia (hiMG); assay: TNF release from hiMG exposed to oligomeric Aβ and αSyn with their antibodies, ELISA; format: cell-based; conditions: oligomeric Aβ (~750 nM oligomers) + oligomeric αSyn (~100 nM) with anti-αSyn & anti-Aβ antibodies; carnosic acid 2 μM; n=3 per group
# Procedure: as §1, §2
SMILES,activation of the Nrf2/ARE pathway (Nrf2/ARE pathway),neuroprotective effect [1],IL-1β release from hiMG [2],activation of HSF-1 and Nrf2 transcription pathways [3],TNF release from hiMG [4]
"C=C1CC[C@@H]2C(C)(C)CCCC2(C)C1Cc1cc(O)ccc1O (stereo partly shown) [Zonarol, zonarol]",activate the Nrf2/ARE pathway,exert neuroprotective effects against oxidative stress,–,–,–
"CC(C)c1cc2c(c(O)c1O)[C@@]1(C(=O)O)CCCC(C)(C)[C@@H]1CC2 [Carnosic acid, carnosic acid]",activates the Nrf2/ARE pathway,affording protection against neural damage,significantly reduced IL-1β release; also recorded: reduction in IL-1β,activates both the HSF-1 and Nrf2 transcription pathways,significantly reduced TNF release; also recorded: significantly reduced the type of inflammation

# Source: US20250122146A1, “COMPOUNDS FOR REDUCING NEUROINFLAMMATION” (THE SCRIPPS RESEARCH INSTITUTE, priority 2021, published 2025)
